From the supplement of paper PMC10307832

Assays:
Test in all cases: relative viability (nuclei count vs DMSO), 5 days (fraction); higher = more cells survive
Sunitinib + Phenformin = compound: CCN(CC)CCNC(=O)c1c(C)[nH]c(/C=C2\C(=O)Nc3ccc(F)cc32)c1C [Sunitinib] + N=C(N)NC(=N)NCCc1ccccc1 [Phenformin] (partner 250 µM)
Summary of the method: (§1)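 Nuclei were stained with Hoechst during a one-step fixation (final 0.05% Triton X-100, 1% formaldehyde, 1 ug/ml Hoechst) carried out 5 days after dosing, then counted on 4× images. The cells, lung cancer lines in 1536-well plates, had been dosed by pin tool the day after seeding with one drug alone or a fixed anchor-drug dose plus five library-drug doses (not always all listed) in √10 steps. Relative viability is the nuclei count in treated wells divided by that in vehicle wells, and each value is the median of duplicate plates.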

Sunitinib + Olaparib = compound: CCN(CC)CCNC(=O)c1c(C)[nH]c(/C=C2\C(=O)Nc3ccc(F)cc32)c1C [Sunitinib] + O=C(c1cc(Cc2n[nH]c(=O)c3ccccc23)ccc1F)N1CCN(C(=O)C2CC2)CC1 [Olaparib] (partner 8 µM)
Summary of the method: as §1

Sunitinib + Trametinib = compound: CCN(CC)CCNC(=O)c1c(C)[nH]c(/C=C2\C(=O)Nc3ccc(F)cc32)c1C [Sunitinib] + CC(=O)Nc1cccc(-n2c(=O)n(C3CC3)c(=O)c3c(Nc4ccc(I)cc4F)n(C)c(=O)c(C)c32)c1 [Trametinib] (partner 0.02 µM)
Summary of the method: as §1

Sunitinib = compound: CCN(CC)CCNC(=O)c1c(C)[nH]c(/C=C2\C(=O)Nc3ccc(F)cc32)c1C [Sunitinib]
Summary of the method: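 Viability is treated-well nuclei as a fraction of vehicle-well nuclei, reported as the median across plates. Before counting, lung cancer cell lines were kept overnight at 37 °C in 1536-well plates, pinned with five √10-spaced library-drug doses on vehicle-anchored plates, and left 5 days without medium change, then fixed, permeabilised and Hoechst-stained in one step, imaged at 4× and counted by MetaXpress. A plate passed only if control CV was below 25% and at least one doubling occurred.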

| Cell Line | relative viability (Sunitinib + Phenformin; first compound 0.02 µM) | relative viability (Sunitinib + Phenformin; first compound 0.06325 µM) | relative viability (Sunitinib + Phenformin; first compound 0.2 µM) | relative viability (Sunitinib + Phenformin; first compound 0.6325 µM) | relative viability (Sunitinib + Phenformin; first compound 2 µM) | relative viability (Sunitinib + Olaparib; first compound 0.02 µM) | relative viability (Sunitinib + Olaparib; first compound 0.06325 µM) | relative viability (Sunitinib + Olaparib; first compound 0.2 µM) | relative viability (Sunitinib + Olaparib; first compound 0.6325 µM) | relative viability (Sunitinib + Olaparib; first compound 2 µM) | relative viability (Sunitinib + Trametinib; first compound 0.02 µM) | relative viability (Sunitinib + Trametinib; first compound 0.06325 µM) | relative viability (Sunitinib + Trametinib; first compound 0.2 µM) | relative viability (Sunitinib + Trametinib; first compound 0.6325 µM) | relative viability (Sunitinib + Trametinib; first compound 2 µM) | relative viability (Sunitinib; 0.02 µM) | relative viability (Sunitinib; 0.06325 µM) | relative viability (Sunitinib; 0.2 µM) | relative viability (Sunitinib; 0.6325 µM) | relative viability (Sunitinib; 2 µM) |
| --- | --- | --- | --- | --- | --- | --- | --- | --- | --- | --- | --- | --- | --- | --- | --- | --- | --- | --- | --- | --- |
| NCI-H2228 | 0.332 | 0.405 | 0.315 | 0.341 | 0.322 | 0.608 | 0.55 | 0.98 | 0.772 | 0.544 | 0.574 | 0.568 | 0.593 | 0.558 | 0.285 | 1.02 | 1.21 | 1.07 | 0.973 | 0.962 |
| LC-2-ad | 0.526 | 0.574 | 0.643 | 0.61 | 0.573 | 0.68 | 0.746 | 0.749 | 0.729 | 0.825 | 0.894 | 0.951 | 0.896 | 0.825 | 0.722 | 0.945 | 1.01 | 1.09 | 1 | 0.781 |
| HARA | 0.478 | 0.495 | 0.484 | 0.399 | 0.43 | 0.718 | 0.966 | 0.801 | 0.786 | 0.7 | 0.599 | 0.976 | 0.841 | 0.943 | 0.707 | 0.966 | 1.16 | 1.03 | 0.987 | – |
| PC-3 [JPC-3] | 0.478 | 0.484 | 0.471 | 0.502 | 0.468 | 1.05 | 1.12 | 1.22 | 1.12 | 0.926 | 0.754 | 0.715 | 0.667 | 0.772 | 0.59 | 1.12 | 1.05 | 0.981 | 1.02 | 1.02 |
| LCLC-97TM1 | 0.463 | 0.438 | 0.442 | 0.406 | 0.426 | 0.377 | 0.401 | 0.548 | 0.477 | 0.442 | 0.197 | 0.215 | 0.206 | 0.207 | 0.205 | 0.968 | 1.14 | 1.01 | 1.02 | 1.09 |
| LU99A | 0.727 | 0.906 | 1 | 0.803 | 0.782 | 0.267 | 0.27 | 0.271 | 0.321 | 0.295 | 0.477 | 0.562 | 0.554 | 0.552 | 0.424 | 0.84 | 1.1 | 1.04 | 0.938 | 0.901 |
| NCI-H1666 | 0.569 | 0.587 | 0.55 | 0.586 | 0.538 | 0.77 | 0.825 | 0.75 | 0.862 | 0.85 | 0.843 | 0.888 | 1.09 | 0.879 | 0.882 | 1.02 | 1.07 | 1.1 | 1.05 | – |
| NCI-H520 | 0.674 | 0.685 | 0.471 | 0.661 | 0.424 | 0.395 | 0.338 | 0.314 | 0.377 | 0.335 | 0.657 | 0.813 | 0.727 | 0.772 | 0.601 | 0.926 | 1.08 | 1.07 | 0.979 | 0.912 |
| A-427 | 0.263 | 0.383 | 0.315 | 0.301 | 0.279 | 0.701 | 0.721 | 0.832 | 0.848 | 0.771 | 0.759 | 0.758 | 0.893 | 0.821 | 0.728 | 0.981 | – | 1.05 | 1.07 | 1.06 |
| ChaGo-K-1 | 0.409 | 0.543 | 0.508 | 0.516 | 0.488 | 0.483 | 0.466 | 0.414 | 0.435 | 0.441 | 0.814 | 0.919 | 0.977 | 0.889 | 0.888 | 0.987 | 1.01 | 1.04 | 1.06 | 1.04 |
| NCI-H23 | 0.753 | – | 0.93 | 0.878 | 0.763 | 0.353 | 0.28 | 0.307 | 0.312 | 0.307 | 0.345 | 0.348 | 0.334 | 0.391 | 0.351 | 0.849 | 1.15 | 1.07 | 1.17 | 0.938 |
